Experimental data from article PMC6874530, “Structural analysis identifies an escape route from the adverse lipogenic effects of liver X receptor ligands” (Communications Biology, 2019).

Columns and labels:
[1] = quantification of drug concentration in plasma of mice; format: in vivo, mouse; conditions: oral gavage
Experimental: Solid compounds were solubilized in PEG400/Ethanol/Solutol/Water solution (36.3/9.1/4.6/50%). Compounds were given daily by oral gavage, 5 ml kg^−1, at doses ranging from 0.1 to 100 μmol kg^−1 of body weight for 4 days. Animals were terminated 3 h after the last dose.
At termination, the whole-blood volume was drawn from isoflurane-anesthetized mice via an incision in the carotid artery into EDTA blood tubes (S-Monovette®, EDTA KE/1.3 mL, Sarstedt, Nümbrecht, Germany or BD Microtainers®, Benton, Dickinson and Company, Franklin Lakes, New Jersey, USA). Blood samples were placed on ice and centrifuged within an hour (15 min, 2500 × g, 4 °C or 5 min, 16000 × g, 4 °C). The plasma was then dispensed in separate tubes and kept at −80 °C for later analysis of compound concentration and TG levels. For the analysis of intestinal Abca1 transcript levels, a 3–5-mm long segment of the duodenum was excised and cleared from any gut contents. Tissues were instantly snap frozen in liquid nitrogen and stored at −80 °C.
About 25 µL of plasma was precipitated with 150 µL of cold acetonitrile containing 0.2% formic acid. After vortexing followed by 20 min of centrifugation at 3220 × g and 4 °C, the supernatant was diluted 1:1 with 0.2% formic acid (aqueous phase). […]

LXRα/SRC1 = target: T1, LXRα/SRC1 (Homo sapiens, UniProt Q13133); experiment: SPR cofactor recruitment, LXRα LBD binding to immobilized SRC1 coactivator peptide; conditions: LXRα LBD 0.02–10 µM equilibrated with compound (50 μM)
T1 construct: Human his-tagged LXRα LBD (200-447); His tag; made in house; host or cells: Escherichia coli BL21(DE3)
T1 sequence (Q13133 200-447): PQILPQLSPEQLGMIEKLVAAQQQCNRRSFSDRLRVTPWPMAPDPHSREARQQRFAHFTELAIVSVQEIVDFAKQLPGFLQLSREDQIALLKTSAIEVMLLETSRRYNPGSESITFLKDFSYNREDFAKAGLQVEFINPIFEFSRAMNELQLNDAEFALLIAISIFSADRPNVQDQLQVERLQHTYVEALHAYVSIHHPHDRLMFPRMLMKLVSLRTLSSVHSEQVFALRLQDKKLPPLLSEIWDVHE
T1 sequence (Q15788 with tags, fused parts or gaps partner limits assumed): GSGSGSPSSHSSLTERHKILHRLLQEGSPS
Experimental: (§1) The peptides carried an N-terminal biotin for surface immobilization on a Xantec NID200M Sensor Chip (NTA-derivatized carboxymethyldextran hydrogel, XanTec bioanalytics GmbH) preloaded with Ni^2+. […] LXRα and LXRβ LBD proteins were serially diluted in SPR running buffer (10 mM HEPES, 150 mM NaCl, and 0.05% Tween 20, pH 7.4) to a broad range of concentrations (0.02–10 µM) and equilibrated with tested compound (50 μM) prior to the sample injection over a modified biosensor surface. LXR-ligand complexes were injected in quick succession for 120 s over immobilized cofactor peptides and reference surfaces along with blank samples followed by 900 s of dissociation. The binding level at equilibrium was monitored for all samples, including the reference sample that contained DMSO at equal amount as tested compounds. All data were normalized to this reference sample in order to quantify the effects on peptide binding without bias by receptor instability. The surface was regenerated with 0.5% (w/v) SDS after each injection. Binding responses in the steady-state region of the sensorgrams were plotted against LXR LBD concentration to determine the overall equilibrium-binding affinity by fitting the data to nonlinear regression (Prism 8; GraphPad).

LXRβ LBD = target: T2, LXRβ LBD (Homo sapiens, UniProt P55055); conditions: LXRβ over LXRα binding
T2 sequence (P55055 215-460 limits assumed): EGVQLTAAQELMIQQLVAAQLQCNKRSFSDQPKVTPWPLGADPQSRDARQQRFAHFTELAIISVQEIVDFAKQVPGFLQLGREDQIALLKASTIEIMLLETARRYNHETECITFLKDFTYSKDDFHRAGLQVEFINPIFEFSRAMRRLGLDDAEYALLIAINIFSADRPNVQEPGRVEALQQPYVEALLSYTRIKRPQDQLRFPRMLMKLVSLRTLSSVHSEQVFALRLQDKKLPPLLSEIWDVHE
Text: The compounds were run in triplicate (binding assay) or in quadruplicate (transactivation assay). Standard deviations are indicated for individual experiments run more than once.

ABCA1 mRNA = experiment: human whole blood assay, ABCA1 mRNA; format: cell-based; conditions: preliminary results, reply to reviewers
LXRα/NCOR1 = target: T3, LXRα/NCOR1 (Homo sapiens, UniProt Q13133); experiment: SPR cofactor recruitment, LXRα LBD binding to immobilized NCOR1 corepressor peptide
T3 construct: Human his-tagged LXRα LBD (200-447); His tag; made in house; host or cells: Escherichia coli BL21(DE3)
T3 sequence (Q13133 200-447): T1 sequence (Q13133 200-447)
T3 sequence (O75376 with tags, fused parts or gaps partner limits assumed): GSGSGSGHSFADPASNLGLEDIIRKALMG
Experimental: as §1

LXRβ/SRC1 = target: T4, LXRβ/SRC1 (Homo sapiens, UniProt P55055); experiment: SPR cofactor recruitment, LXRβ LBD binding to immobilized SRC1 coactivator peptide; conditions: LXRβ LBD 0.02–10 µM equilibrated with compound (50 μM), immobilized SRC1 peptide; read-out: LXRβ/SRC1 Kd
T4 construct: human his-tagged LXRβ LBD (216-461); His tag; made in house; host or cells: Escherichia coli BL21(DE3)
T4 sequence (P55055 215-460 limits assumed): T2 sequence (P55055 215-460 limits assumed)
T4 sequence (Q15788 with tags, fused parts or gaps partner limits assumed): T1 sequence (Q15788 with tags, fused parts or gaps partner limits assumed)
Experimental: as §1

LXRβ/NCOR1 = target: T5, LXRβ/NCOR1 (Homo sapiens, UniProt P55055); experiment: SPR cofactor recruitment, LXRβ LBD binding to immobilized NCOR1 corepressor peptide
T5 construct: human his-tagged LXRβ LBD (216-461); His tag; made in house; host or cells: Escherichia coli BL21(DE3)
T5 sequence (P55055 215-460 limits assumed): T2 sequence (P55055 215-460 limits assumed)
Experimental: as §1

In the case of `CN(C)C(=O)c1cnc(N2CC[C@@H](CNC3=C(c4ccccc4)S(=O)(=O)N(C(C)(C)C)C3=O)C2)c(Cl)c1` [AZ5], the systemic exposure [1] is reported as “too low”.

With `CC(C)N1C(=O)C(NC2CCN(c3ncc(CC(=O)O)cc3Cl)CC2)=C(c2ccccc2)S1(=O)=O` [AZ6] the Kd (LXRα/SRC1) was 1.5 µM.

With `CC(C)(C)N1C(=O)C(Cc2ccccc2)=C(NC2CCN(c3ncc(CC(=O)O)cc3Cl)CC2)C1=O` [AZ7] the LXRβ binding selectivity (LXRβ LBD) was “more than tenfold”.

In the case of `CC(C)(O)c1cn(-c2ccc(-c3cc(F)c(CO)c(S(C)(=O)=O)c3)cc2F)c(C(C)(C)c2c(Cl)cccc2Cl)n1` [BMS-852927], the “ABCA1 mRNA levels in human whole blood assay” value (ABCA1 mRNA) is reported as “induces ABCA1 mRNA levels, however with lower efficiency than full”, the “effect on the LXRα/NCOR1 interaction” value (LXRα/NCOR1) is reported as “enhanced the interaction” and the Kd (LXRβ/SRC1) is reported as 19.8 µM. The “effect on the LXRβ/NCOR1 interaction” value (LXRβ/NCOR1) was “enhanced the interaction”.
